The compounds below were run against H3 receptor (UniProt Q9Y5N1) (assay: H3 Receptor Binding Assay). Details: displacement of 3 nM [3H]R-α-methyl histamine or [3H]Nα-methyl histamine; membranes from guinea pig brain, alternatively recombinant human receptor in HEK-293 cells; 30° C., 30 minutes; read-out: H3 Ave Ki.
Procedure: The source of the H3 receptors in this experiment was guinea pig brain. Alternatively, the source of H3 receptors was recombinant human receptor, expressed in HEK-293 (human embryonic kidney) cells.
The animals weighed 400-600 g. The brain tissue was homogenized with a solution of 50 mM Tris, pH 7.5. The final concentration of tissue in the homogenization buffer was 10% w/v. The homogenates were centrifuged at 1,000×g for 10 minutes. in order to remove clumps of tissue and debris. The resulting supernatants were then centrifuged at 50,000×g for 20 minutes in order to sediment the membranes, which were next washed three times in homogenization buffer (50,000×g for 20 minutes. each). The membranes were frozen and stored at −70° C. until needed.
Compounds of the invention to be tested were dissolved in DMSO and then diluted into the binding buffer (50 mM Tris, pH 7.5) such that the final concentration was 2 μg/ml with 0.1% DMSO. Membranes were then added (400 μg of protein, 5 μg in the case of recombinant human receptor) to the reaction tubes. The reaction was started by the addition of 3 nM [^3H]R-α-methyl histamine (8.8 Ci/mmol) or 3 nM [^3H]N^α-methyl histamine (80 Ci/mmol) and continued under incubation at 30° C. for 30 minutes. Bound ligand was separated from unbound ligand by filtration, and the amount of radioactive ligand bound to the membranes was quantitated by liquid scintillation spectrometry. All incubations were performed in duplicate and the standard error was always less than 10%. Compounds that inhibited more than 70% of the specific binding of radioactive ligand to the receptor were serially diluted to determine a Ki (nM).

| Ki [nM] | Compound |
| --- | --- |
| 38.6 | C[C@@H]1CCCN1CCc1cn2cc(-c3cncc(C#N)c3)ccc2n1 [Compound 18] |
| 36.5 | C[C@@H]1CCCN1CCc1cn2ccc(-c3ccc(F)nc3)cc2n1 [Compound 19] |
| 104 | C[C@@H]1CCCN1CCc1cn2cc(-c3cccc4ncccc34)ccc2n1 [Compound 20] |
| 459 | C[C@@H]1CCCN1CCc1cn2cc(-c3ccc4[nH]ccc4c3)ccc2n1 [Compound 21] |
| 69 | C[C@@H]1CCCN1CCc1cn2cc(-c3ccc(=O)n(C)c3)ccc2n1 [Compound 22] |
| 22 | C[C@@H]1CCCN1CCc1cn2cc(-c3cnc(N)c(C#N)c3)ccc2n1 [Compound 23] |
| 366 | C[C@@H]1CCCN1CCc1cn2cc(-c3cncnc3)ccc2n1 [Compound 24] |
| 246 | C[C@@H]1CCCN1CCc1cn2cc(-c3cnc(N)cn3)ccc2n1 [Compound 25] |
| 7.1 | Cc1nnc2ccc(-c3ccc4nc(CCN5CCC[C@H]5C)cn4c3)cn12 [Compound 26] |

Further lines, the compound ahead of its results:

| Compound | Ki [nM] |
| --- | --- |
| C[C@@H]1CCCN1CCc1cn2cc(Br)ccc2n1 [Compound 1] | 327 |
| C[C@@H]1CCCN1CCc1cn2cc(-c3ccc(C#N)cc3)ccc2n1 [Compound 2] | 27 |
| C[C@@H]1CCCN1CCc1cn2cc(-n3ncccc3=O)ccc2n1 [Compound 3] | 76.8 |
| C[C@@H]1CCCN1CCc1cn2cc(-c3ccc(N(C)C)cc3)ccc2n1 [Compound 4] | 106 |
| COc1ccc(-c2ccc3nc(CCN4CCC[C@H]4C)cn3c2)cc1 [Compound 5] | 91.8 |
| C[C@@H]1CCCN1CCc1cn2cc(-c3ccc(F)cc3)ccc2n1 [Compound 6] | 58.5 |
| C[C@@H]1CCCN1CCc1cn2cc(-c3ccc(O)cc3)ccc2n1 [Compound 7] | 64.5 |
| CC(=O)Nc1ccc(-c2ccc3nc(CCN4CCC[C@H]4C)cn3c2)cc1 [Compound 8] | 67.5 |
| C[C@@H]1CCCN1CCc1cn2cc(-c3cccc(C#N)c3)ccc2n1 [Compound 9] | 13 |
| COc1ccccc1-c1ccc2nc(CCN3CCC[C@H]3C)cn2c1 [Compound 10] | 163 |
| C[C@@H]1CCCN1CCc1cn2cc(-c3ccccc3F)ccc2n1 [Compound 11] | 74 |
| C[C@@H]1CCCN1CCc1cn2ccc(Br)cc2n1 [Compound 12] | 101 |
| C[C@@H]1CCCN1CCc1cn2ccc(-c3ccc(C#N)cc3)cc2n1 [Compound 13] | 34 |
| CCOc1cccc(-c2ccn3cc(CCN4CCC[C@H]4C)nc3c2)c1 [Compound 14] | 70 |
| C[C@@H]1CCCN1CCc1cn2ccc(-c3ccccc3F)cc2n1 [Compound 15] | 25 |
| C[C@@H]1CCCN1CCc1cn2cc(-c3ccc(F)c(C#N)c3)ccc2n1 [Compound 16] | 4 |
| C[C@@H]1CCCN1CCc1cn2cc(-c3ccc4ncccc4c3)ccc2n1 [Compound 17] | 11.2 |

Reference: patent publication US20120225885A1, “IMIDAZOLE DERIVATIVES AND METHODS OF USE THEREOF” (priority 2009, published 2012)
